Reference: US20250326771A1, “PIPERAZINE DERIVATIVES USEFUL IN HIV THERAPY” (VIIV HEALTHCARE COMPANY, priority 2022, published 2025)

How the values were obtained:
cIAP2-BIR2 = cIAP2-BIR2 (Homo sapiens (Human), UniProt Q13489); test: BIR binding assay (FRET competition), cIAP2 BIR2
In short: (§1)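 Compounds tested as 15-point, 3-fold series displacing 200 nM AlexaFluor647-labelled SMAC peptide from His-tagged BIR domain (cIAP1-BIR3 50 nM; cIAP1-BIR2 and cIAP2-BIR2 325 nM; XIAP-BIR3 100 nM), pH 7.4, 60 min. Eu-W1024 (2 nM) added 30 min; emission ratio fitted for IC50.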

[1] = test system: Jurkat HIV-luciferase clones; test: Jurkat latency reversal assay; format: cell-based; details: Jurkat latency reversal assay potency; for EC50: Homo sapiens, 48 h, read-out: Jurkat pEC50 (converted)
In short: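 Luminescence read-out: Steady-Glo after 48 h, 37° C, on mixed Jurkat HIV-luc clones (C16, 115, N6; 5,000 cells/well total). Cpd 14-pt 3-fold dilutions, duplicate, top 10 μM, 0.5% DMSO. EC50 + max % activation vs vehicle via 4-parameter fit.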

cIAP2-BIR3 = cIAP2-BIR3 (Homo sapiens (Human), UniProt Q13489); test: BIR binding assay (FRET competition), cIAP2 BIR3; details: for cIAP2 BIR3 vs BIR2 separation window: fold separation (FS) for cIAP2
XIAP-BIR3 = XIAP-BIR3 (Homo sapiens (Human), UniProt P98170); test: BIR binding assay (FRET competition), XIAP BIR3
In short: as §1

cIAP1-BIR2 = cIAP1-BIR2 (Homo sapiens (Human), UniProt Q13490); test: BIR binding assay (FRET competition), cIAP1 BIR2
In short: as §1

cIAP1-BIR3 = cIAP1-BIR3 (Homo sapiens (Human), UniProt Q13490); test: BIR binding assay (FRET competition), cIAP1 BIR3; details: for cIAP1 BIR3 vs BIR2 separation window: fold separation (FS) for cIAP1
In short: as §1

cIAP2-BIR2, sequence (Q13489 158-242): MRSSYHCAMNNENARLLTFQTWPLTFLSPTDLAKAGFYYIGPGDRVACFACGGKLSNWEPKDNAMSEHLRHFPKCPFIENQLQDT
XIAP-BIR3, sequence (P98170 241-356): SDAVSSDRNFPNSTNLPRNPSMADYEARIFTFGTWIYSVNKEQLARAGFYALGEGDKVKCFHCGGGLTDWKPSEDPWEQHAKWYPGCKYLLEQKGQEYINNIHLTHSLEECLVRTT
cIAP1-BIR3, sequence (Q13490 253-363): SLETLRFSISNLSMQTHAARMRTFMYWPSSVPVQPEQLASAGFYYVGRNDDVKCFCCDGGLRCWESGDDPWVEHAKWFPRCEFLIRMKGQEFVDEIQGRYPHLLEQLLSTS
cIAP1-BIR2, sequence (Q13490 173-257): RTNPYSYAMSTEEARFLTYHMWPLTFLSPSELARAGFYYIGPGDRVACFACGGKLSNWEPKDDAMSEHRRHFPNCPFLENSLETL
cIAP2-BIR3, sequence (Q13489 238-349): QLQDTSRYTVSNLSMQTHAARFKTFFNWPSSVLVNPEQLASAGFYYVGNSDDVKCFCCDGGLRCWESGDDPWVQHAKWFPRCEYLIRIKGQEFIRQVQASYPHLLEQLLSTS

Structure (SMILES) | IC50 (cIAP2-BIR2) [nM] | EC50 [1] [nM] | IC50 (cIAP2-BIR3) [nM] | cIAP2 BIR3 vs BIR2 separation window (cIAP2-BIR3) | IC50 (XIAP-BIR3) [nM] | IC50 (cIAP1-BIR2) [nM] | IC50 (cIAP1-BIR3) [nM] | cIAP1 BIR3 vs BIR2 separation window (cIAP1-BIR3) | cIAP2 BIR2 (pIC50) (cIAP2-BIR2; FRET competition) | cIAP2 BIR3 (pIC50) (cIAP2-BIR3; FRET competition) | XIAP BIR3 (pIC50) (XIAP-BIR3; FRET competition) | cIAP1 BIR2 (pIC50) (cIAP1-BIR2; FRET competition) | cIAP1 BIR3 (pIC50) (cIAP1-BIR3; FRET competition) | cIAP2 BIR2 (pIC50) (cIAP2-BIR2; FRET competition binding) | Jurkat pEC50 [1] | cIAP2 BIR3 (pIC50) (cIAP2-BIR3; FRET competition binding) | XIAP BIR3 (pIC50) (XIAP-BIR3; FRET competition binding) | cIAP1 BIR2 (pIC50) (cIAP1-BIR2; FRET competition binding) | cIAP1 BIR3 (pIC50) (cIAP1-BIR3; FRET competition binding)
C[C@@H]1CN(CC(=O)N2CC(C)(C)c3[nH]c(=O)c(Cc4ccc(F)cc4)cc32)[C@@H](CN2CCC[C@H](NC(=O)CCCCCCCCCCCCC(=O)N[C@H]3CCCN(C[C@H]4CN[C@H](C)CN4CC(=O)N4CC(C)(C)c5[nH]c(=O)c(Cc6ccc(F)cc6)cc54)C3)C2)CN1 [Example 40, N^1,N^14-bis((S)-1-(((2R,5R)-1-(2-(6-(4-fluorobenzyl)-3,3-dimethyl-5-oxo-2,3,4,5-tetrahydro-1H-pyrrolo[3,2-b]pyridin-1-yl)-2-oxoethyl)-5-methylpiperazin-2-yl)methyl)piperidin-3-yl)tetradecanediamide] | 10000 to 51300 | 63.1 to 316 | 15.8 to 31.6 | +++ (10,000>FS>1,000) | 31.6 to 501 | 10000 to 51300 | 15.8 to 31.6 | +++ (10,000>FS>1,000) | – | – | – | – | – | – | – | – | – | – | –
C[C@@H]1CN(CC(=O)N2CC(C)(C)c3[nH]c(=O)c(Cc4ccc(F)cc4)cc32)[C@@H](CN2CCN(CCCCCCCCCCN3CCN(C[C@H]4CN[C@H](C)CN4CC(=O)N4CC(C)(C)c5[nH]c(=O)c(Cc6ccc(F)cc6)cc54)[C@H](C)C3)C[C@H]2C)CN1 [Example 25, 1,1′-(2,2′-((3R,3′R,6R,6′R)-(((2R,2′R)-decane-1,10-diylbis(2-methylpiperazine-4,1-diyl))bis(methylene))bis(3-methylpiperazine-6,1-diyl))bis(acetyl))bis(6-(4-fluorobenzyl)-3,3-dimethyl-1,2,3,4-tetrahydro-5H-pyrrolo[3,2-b]pyridin-5-one)] | 22.4 to 1000 | 12.6 to 63.1 | 1.38 to 7.94 | +++ (10,000>FS>1,000) | 7.94 to 15.8 | 22.4 to 1000 | 7.94 to 15.8 | ++ (1,000>FS>100) | – | – | – | – | – | – | – | – | – | – | –
C[C@@H]1CN(CC(=O)N2CC(C)(C)c3[nH]c(=O)c(Cc4ccc(F)cc4)cc32)[C@@H](CN2CCO[C@H](COc3cc(C#N)cc(OC[C@@H]4CN(C[C@H]5CN[C@H](C)CN5CC(=O)N5CC(C)(C)c6[nH]c(=O)c(Cc7ccc(F)cc7)cc65)CCO4)c3)C2)CN1 [Example 76, 3,5-bis(((S)-4-(((2R,5R)-1-(2-(6-(4-fluorobenzyl)-3,3-dimethyl-5-oxo-2,3,4,5-tetrahydro-1H-pyrrolo[3,2-b]pyridin-1-yl)-2-oxoethyl)-5-methylpiperazin-2-yl)methyl)morpholin-2-yl)methoxy)benzonitrile] | 1000 to 3160 | 0.49 to 12.6 | 1.38 to 7.94 | +++ (10,000>FS>1,000) | 15.8 to 31.6 | 3160 to 10000 | 7.94 to 15.8 | +++ (10,000>FS>1,000) | – | – | – | – | – | – | – | – | – | – | –
C[C@@H]1CN(CC(=O)N2CC(C)(C)c3[nH]c(=O)c(Cc4cc(F)c(F)c(F)c4F)cc32)[C@@H](CN2CCO[C@H](C(=O)NCc3ccc(CNC(=O)[C@@H]4CN(C[C@H]5CN[C@H](C)CN5CC(=O)N5CC(C)(C)c6[nH]c(=O)c(Cc7cc(F)c(F)c(F)c7F)cc65)CCO4)cc3)C2)CN1 [Compound 174, (2S,2′S)-N,N′-(1,4-phenylenebis(methylene)) bis(4-(((2R,5R)-1-(2-(3,3-dimethyl-5-oxo-6-(2,3,4,5-tetrafluorobenzyl)-2,3,4,5-tetrahydro-1H-pyrrolo[3,2-b]pyridin-1-yl)-2-oxoethyl)-5-methylpiperazin-2-yl)methyl)morpholine-2-carboxamide)] | – | 0.49 to 12.6 | – | +++ (10,000>FS>1,000) | – | – | – | +++ (10,000>FS>1,000) | ++ (5.00<pIC50<=5.50) | +++ (8.10>pIC50>=7.80) | ++ (7.80>pIC50>=7.50) | ++ (5.00<pIC50<=5.50) | +++ (8.10>pIC50>=7.80) | – | – | – | – | – | –
C[C@@H]1CN(CC(=O)N2CC(C)(C)c3[nH]c(=O)c(Cc4ccc(F)cc4)cc32)[C@@H](CN2CCN(CCCCCCCCCCCCN3CCN(C[C@H]4CN[C@H](C)CN4CC(=O)N4CC(C)(C)c5[nH]c(=O)c(Cc6ccc(F)cc6)cc54)[C@H](C)C3)C[C@H]2C)CN1 [Example 26, 1,1′-(2,2′-((3R,3′R,6R,6′R)-(((2R,2′R)-dodecane-1,12-diylbis(2-methylpiperazine-4,1-diyl))bis(methylene))bis(3-methylpiperazine-6,1-diyl))bis(acetyl))bis(6-(4-fluorobenzyl)-3,3-dimethyl-1,2,3,4-tetrahydro-5H-pyrrolo[3,2-b]pyridin-5-one)] | 1000 to 3160 | 12.6 to 63.1 | 7.94 to 15.8 | – | 15.8 to 31.6 | 1000 to 3160 | 31.6 to 501 | – | – | – | – | – | – | – | – | – | – | – | –
C[C@@H]1CN(CC(=O)N2CC(C)(C)c3[nH]c(=O)c(Cc4c(F)cc(F)cc4F)cc32)[C@@H](CN2CCO[C@H](COc3cccc(OC[C@@H]4CN(C[C@H]5CN[C@H](C)CN5CC(=O)N5CC(C)(C)c6[nH]c(=O)c(Cc7c(F)cc(F)cc7F)cc65)CCO4)c3)C2)CN1 [Compound 188] | 1000 to 3160 | 0.49 to 12.6 | 15.8 to 31.6 | ++ (1,000>FS>100) | 15.8 to 31.6 | 1000 to 3160 | 15.8 to 31.6 | +++ (10,000>FS>1,000) | – | – | – | – | – | – | – | – | – | – | –
C[C@@H]1CN(CC(=O)N2CC(C)(C)c3[nH]c(=O)c(Cc4ccc(F)cc4)cc32)[C@@H](CN2CCO[C@H](COc3ccc(Oc4ccc(OC[C@@H]5CN(C[C@H]6CN[C@H](C)CN6CC(=O)N6CC(C)(C)c7[nH]c(=O)c(Cc8ccc(F)cc8)cc76)CCO5)cc4)cc3)C2)CN1 [Example 55, 1,1′-(2,2′-((3R,3′R,6R,6′R)-(((2S,2'S)-(((oxybis(4,1-phenylene))bis(oxy))bis(methylene))bis(morpholine-2,4-diyl))bis(methylene))bis(3-methylpiperazine-6,1-diyl))bis(acetyl))bis(6-(4-fluorobenzyl)-3,3-dimethyl-1,2,3,4-tetrahydro-5H-pyrrolo[3,2-b]pyridin-5-one)] | – | – | – | ++++ (FS>10,000) | – | – | – | ++++ (FS>10,000) | – | – | – | – | – | + (4.29<pIC50<=5.00) | ++++ (9.31>pEC50>=7.90) | +++ (8.10>pIC50>=7.80) | ++ (7.80>pIC50>=7.50) | + (4.29<pIC50<=5.00) | + (7.50>pIC50>=6.30)
C[C@@H]1CN(CC(=O)N2CC(C)(C)c3[nH]c(=O)c(Cc4ccc(F)c(F)c4F)cc32)[C@@H](CN2CCO[C@H](C(=O)NCc3ccc(CNC(=O)[C@@H]4CN(C[C@H]5CN[C@H](C)CN5CC(=O)N5CC(C)(C)c6[nH]c(=O)c(Cc7ccc(F)c(F)c7F)cc65)CCO4)cc3)C2)CN1 [Compound 178, (2S,2′S)-N,N′-(1,4-phenylenebis(methylene)) bis(4-(((2R,5R)-1-(2-(3,3-dimethyl-5-oxo-6-(2,3,4-trifluorobenzyl)-2,3,4,5-tetrahydro-1H-pyrrolo[3,2-b]pyridin-1-yl)-2-oxoethyl)-5-methylpiperazin-2-yl)methyl)morpholine-2-carboxamide)] | 1000 to 3160 | 0.49 to 12.6 | 7.94 to 15.8 | +++ (10,000>FS>1,000) | 15.8 to 31.6 | 1000 to 3160 | 15.8 to 31.6 | +++ (10,000>FS>1,000) | – | – | – | – | – | – | – | – | – | – | –
